Drawing on US20070117770A1, “Human ribosomal DNA (rDNA) and ribosomal RNA (rRNA) nucleic acids and uses thereof” (Cylene Pharmaceuticals, Inc., priority 2005, published 2007), this text covers remaining activity for two compounds.

Holding throughout (assay): Protein kinase inhibition assay
Type in all cases: biochemical

The target of one experiment is EphA3(h) (Homo sapiens, UniProt P29320). To be noted: read-out: percent residual activity of EphA3(h). The method, then: (§1) Certain compounds were tested for activity in protein kinase inhibition assays. All substrates were dissolved and diluted to working stocks in de-ionized water, apart from histone H1 (10× working stock in 20 mM MOPS pH 7.0), PDKtide (10× working stock in 50 mM Tris pH 7.0) ATF2 (which is typically stored at a 20× working stock in 50 mM Tris pH 7.5, 150 mM NaCl, 0.1 mM EGTA, 0.03% Brij-35, 50% glycerol, 1 mM benzamidine, 0.2 mM PMSF and 0.1% R-mercaptoethanol), KKLNRTLSFAEPG (SEQ ID NO:203) and RRRLSFAEPG (SEQ ID NO:204) (50 mM HEPES pH 7.4) and GGEEEEYFELVKKKK (SEQ ID NO:205) (20 mM MOPS pH 7.0). All kinases were pre-diluted to a 10× working concentration prior to addition into the assay. The composition of the dilution buffer for each kinase is detailed below.
(§2) In a final reaction volume of 25 μl, EphA3 (h) (5-10 mU) is incubated with 8 mM MOPS pH 7.0, 0.2 mM EDTA, 0.1 mg/ml poly(Glu, Tyr) 4:1, 10 mM MgAcetate and [gamma-33P-ATP] (specific activity approx. 500 cpm/pmol, concentration as required). The reaction is initiated by the addition of the MgATP mix. After incubation for 40 minutes at room temperature, the reaction is stopped by the addition of 5 μl of a 3% phosphoric acid solution. 10 μl of the reaction is then spotted onto a Filtermat A and washed three times for 5 minutes in 75 mM phosphoric acid and once in methanol prior to drying and scintillation counting.

The target in another experiment is ZAP-70(h) (Homo sapiens, UniProt P43403). Particulars: read-out: percent residual activity of ZAP-70(h). The method, then:
as §1
In a final reaction volume of 25 μl, ZAP-70 (h) (5-10 mU) is incubated with 50 mM Tris pH 7.5, 0.1 mM EGTA, 0.1 mM Na3VO4, 0.1% R-mercaptoethanol, 0.1 mg/ml poly(Glu, Tyr) 4:1, 10 mM MnCl2, 10 mM MgAcetate and [gamma-33P-ATP] (specific activity approx. 500 cpm/pmol, concentration as required). The reaction is initiated by the addition of the MgATP mix. After incubation for 40 minutes at room temperature, the reaction is stopped by the addition of 5 μl of a 3% phosphoric acid solution. […]

In a further experiment the target is PKD2(h) (Homo sapiens, UniProt Q9BZL6). Particulars: read-out: percent residual activity of PKD2(h). The method, then: as §1
as §2, with “PKD2” for “EphA3”, “20” for “8”, “HEPES” for “MOPS”, “7.4, 0.03% Triton X-100, 30 μM KKLNRTLSVA (SEQ ID NO:212)” for “7.0, 0.2 mM EDTA, 0.1 mg/ml poly(Glu, Tyr) 4:1,”, “P30 filtermat” for “Filtermat A”

Another experiment addresses CHK2(h) (Homo sapiens, UniProt O96017). Particulars: read-out: percent residual activity of CHK2(h). As to the method: as §1
as §2, with “CHK2” for “EphA3”, “200 μM […] (SEQ ID NO:213),” for “0.1 mg/ml poly(Glu, Tyr) 4:1,”, “P30 filtermat” for “Filtermat A”

In the next experiment the target is Pim-1(h) (Homo sapiens, UniProt P11309). Particulars: read-out: percent residual activity of Pim-1(h). As to the method: as §1
as §2, with “Pim-1” for “EphA3”, “100 μM KKRNRTLTV (SEQ ID NO:219),” for “0.1 mg/ml poly(Glu, Tyr) 4:1,”, “P30 filtermat” for “Filtermat A”

The target in a further experiment is MKK6(h) (Homo sapiens, UniProt P52564). Particulars: read-out: percent residual activity of MKK6(h). As to the method:
as §1
The reaction is initiated by the addition of the MgATP. After incubation for 40 minutes at room temperature, 5 μl of this incubation mix is used to initiate a SAPK2a (h) assay, which is described on page 18 of this book.

The target of the next experiment is IGF-1R(h) (Homo sapiens, UniProt P08069). To be noted: read-out: percent residual activity of IGF-1R(h). The method, then:
as §1
In a final reaction volume of 25 μl, IGF-1R (h) (5-10 mU) is incubated with 50 mM Tris pH 7.5, 0.1 mM EGTA, 0.1 mM Na3VO4, 0.1% R-mercaptoethanol, 250 μM KKKSPGEYVNIEFG (SEQ ID NO:207), 10 mM MnCl2, 10 mM MgAcetate and [gamma-33P-ATP] (specific activity approx. 500 cpm/pmol, concentration as required). The reaction is initiated by the addition of the MgATP mix. After incubation for 40 minutes at room temperature, the reaction is stopped by the addition of 5 μl of a 3% phosphoric acid solution. […]

Pim-1(h), sequence (P11309 whole entry): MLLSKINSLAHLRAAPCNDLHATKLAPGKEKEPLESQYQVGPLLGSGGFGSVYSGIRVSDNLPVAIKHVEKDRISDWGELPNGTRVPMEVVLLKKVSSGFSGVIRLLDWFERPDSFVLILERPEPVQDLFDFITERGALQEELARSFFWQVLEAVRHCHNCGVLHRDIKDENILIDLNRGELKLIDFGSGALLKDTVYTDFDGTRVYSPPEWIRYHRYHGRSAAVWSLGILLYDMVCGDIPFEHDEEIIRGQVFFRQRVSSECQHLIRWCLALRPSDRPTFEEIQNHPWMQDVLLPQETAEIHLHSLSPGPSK
IGF-1R(h), sequence (P08069 31-1367): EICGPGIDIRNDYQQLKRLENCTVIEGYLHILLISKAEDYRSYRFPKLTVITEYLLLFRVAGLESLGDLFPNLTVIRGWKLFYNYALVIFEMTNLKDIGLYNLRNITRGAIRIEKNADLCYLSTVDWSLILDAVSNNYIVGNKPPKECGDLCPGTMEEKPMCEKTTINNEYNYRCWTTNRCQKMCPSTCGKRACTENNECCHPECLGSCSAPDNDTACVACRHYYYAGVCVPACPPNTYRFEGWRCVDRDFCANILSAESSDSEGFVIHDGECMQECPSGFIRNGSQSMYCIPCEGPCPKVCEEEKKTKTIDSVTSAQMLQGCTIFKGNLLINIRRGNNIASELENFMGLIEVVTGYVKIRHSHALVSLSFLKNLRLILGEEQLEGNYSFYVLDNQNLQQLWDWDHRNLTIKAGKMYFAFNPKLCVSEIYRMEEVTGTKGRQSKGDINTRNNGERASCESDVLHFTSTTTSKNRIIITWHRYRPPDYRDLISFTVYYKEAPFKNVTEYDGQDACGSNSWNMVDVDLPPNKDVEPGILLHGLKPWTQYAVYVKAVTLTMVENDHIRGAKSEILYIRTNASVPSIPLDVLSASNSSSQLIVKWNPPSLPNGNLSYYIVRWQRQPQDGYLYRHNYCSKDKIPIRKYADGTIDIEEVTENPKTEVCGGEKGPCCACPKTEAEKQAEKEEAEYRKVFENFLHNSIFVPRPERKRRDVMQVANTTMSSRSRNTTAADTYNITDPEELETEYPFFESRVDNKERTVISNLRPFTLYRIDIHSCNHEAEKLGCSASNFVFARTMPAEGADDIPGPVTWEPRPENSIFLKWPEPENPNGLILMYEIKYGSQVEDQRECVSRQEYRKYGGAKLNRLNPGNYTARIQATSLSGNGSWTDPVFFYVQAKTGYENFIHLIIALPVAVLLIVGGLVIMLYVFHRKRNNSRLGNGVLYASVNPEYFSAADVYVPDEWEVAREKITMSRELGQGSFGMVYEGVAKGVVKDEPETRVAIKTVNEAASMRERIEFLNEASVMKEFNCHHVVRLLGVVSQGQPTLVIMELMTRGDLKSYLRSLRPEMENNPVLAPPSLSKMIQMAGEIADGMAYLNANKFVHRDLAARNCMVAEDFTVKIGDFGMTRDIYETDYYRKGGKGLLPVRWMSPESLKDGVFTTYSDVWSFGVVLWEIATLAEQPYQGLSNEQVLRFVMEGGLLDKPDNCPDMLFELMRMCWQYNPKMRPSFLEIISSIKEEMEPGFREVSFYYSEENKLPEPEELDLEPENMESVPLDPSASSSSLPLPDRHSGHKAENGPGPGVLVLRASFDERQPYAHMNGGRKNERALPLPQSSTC
MKK6(h), sequence (P52564 whole entry): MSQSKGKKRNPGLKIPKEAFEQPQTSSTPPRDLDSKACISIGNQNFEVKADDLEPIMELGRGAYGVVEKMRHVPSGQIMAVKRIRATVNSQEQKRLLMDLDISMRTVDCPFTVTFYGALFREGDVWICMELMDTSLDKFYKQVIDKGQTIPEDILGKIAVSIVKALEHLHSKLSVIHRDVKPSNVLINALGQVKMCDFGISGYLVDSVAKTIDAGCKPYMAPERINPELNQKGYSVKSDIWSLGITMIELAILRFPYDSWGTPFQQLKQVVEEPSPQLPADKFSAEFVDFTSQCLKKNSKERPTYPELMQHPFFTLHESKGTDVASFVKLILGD
ZAP-70(h), sequence (P43403 whole entry): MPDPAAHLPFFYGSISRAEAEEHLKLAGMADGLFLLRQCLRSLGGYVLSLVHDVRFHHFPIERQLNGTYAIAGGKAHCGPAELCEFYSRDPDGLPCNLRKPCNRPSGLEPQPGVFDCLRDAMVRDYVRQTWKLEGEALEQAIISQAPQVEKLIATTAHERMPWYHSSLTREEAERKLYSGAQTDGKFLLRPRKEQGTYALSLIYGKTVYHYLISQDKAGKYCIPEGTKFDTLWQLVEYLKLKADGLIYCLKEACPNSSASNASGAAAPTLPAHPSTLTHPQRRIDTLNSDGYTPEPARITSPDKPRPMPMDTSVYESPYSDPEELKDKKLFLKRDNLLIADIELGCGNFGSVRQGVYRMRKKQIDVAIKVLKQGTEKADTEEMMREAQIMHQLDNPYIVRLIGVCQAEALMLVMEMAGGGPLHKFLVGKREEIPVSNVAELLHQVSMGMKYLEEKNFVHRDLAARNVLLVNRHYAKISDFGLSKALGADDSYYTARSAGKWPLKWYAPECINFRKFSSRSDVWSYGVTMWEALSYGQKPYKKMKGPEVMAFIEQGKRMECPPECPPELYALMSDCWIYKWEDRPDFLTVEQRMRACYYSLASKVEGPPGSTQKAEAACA
PKD2(h), sequence (Q9BZL6 whole entry): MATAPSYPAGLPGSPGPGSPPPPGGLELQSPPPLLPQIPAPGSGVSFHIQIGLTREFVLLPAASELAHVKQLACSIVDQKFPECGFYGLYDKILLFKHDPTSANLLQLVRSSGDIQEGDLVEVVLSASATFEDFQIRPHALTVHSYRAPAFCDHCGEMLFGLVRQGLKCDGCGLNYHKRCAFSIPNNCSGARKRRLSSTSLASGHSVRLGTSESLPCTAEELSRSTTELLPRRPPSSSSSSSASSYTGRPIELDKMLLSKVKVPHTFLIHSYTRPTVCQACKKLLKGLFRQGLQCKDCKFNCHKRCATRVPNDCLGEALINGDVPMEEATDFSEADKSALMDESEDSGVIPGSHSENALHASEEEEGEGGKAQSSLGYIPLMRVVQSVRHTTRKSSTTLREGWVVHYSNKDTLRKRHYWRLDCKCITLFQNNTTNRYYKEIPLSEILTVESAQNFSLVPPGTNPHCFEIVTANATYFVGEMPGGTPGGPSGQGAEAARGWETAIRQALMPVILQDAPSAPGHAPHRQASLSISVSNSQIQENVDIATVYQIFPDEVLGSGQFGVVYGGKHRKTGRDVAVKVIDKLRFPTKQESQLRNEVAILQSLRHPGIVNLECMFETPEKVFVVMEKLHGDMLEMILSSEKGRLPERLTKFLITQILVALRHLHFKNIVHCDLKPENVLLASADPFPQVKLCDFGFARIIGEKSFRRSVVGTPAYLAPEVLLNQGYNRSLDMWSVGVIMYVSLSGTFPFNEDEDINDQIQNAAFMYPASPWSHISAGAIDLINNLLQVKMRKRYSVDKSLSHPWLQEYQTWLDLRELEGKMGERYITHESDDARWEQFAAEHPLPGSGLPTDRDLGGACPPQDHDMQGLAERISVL
EphA3(h), sequence (P29320 21-983): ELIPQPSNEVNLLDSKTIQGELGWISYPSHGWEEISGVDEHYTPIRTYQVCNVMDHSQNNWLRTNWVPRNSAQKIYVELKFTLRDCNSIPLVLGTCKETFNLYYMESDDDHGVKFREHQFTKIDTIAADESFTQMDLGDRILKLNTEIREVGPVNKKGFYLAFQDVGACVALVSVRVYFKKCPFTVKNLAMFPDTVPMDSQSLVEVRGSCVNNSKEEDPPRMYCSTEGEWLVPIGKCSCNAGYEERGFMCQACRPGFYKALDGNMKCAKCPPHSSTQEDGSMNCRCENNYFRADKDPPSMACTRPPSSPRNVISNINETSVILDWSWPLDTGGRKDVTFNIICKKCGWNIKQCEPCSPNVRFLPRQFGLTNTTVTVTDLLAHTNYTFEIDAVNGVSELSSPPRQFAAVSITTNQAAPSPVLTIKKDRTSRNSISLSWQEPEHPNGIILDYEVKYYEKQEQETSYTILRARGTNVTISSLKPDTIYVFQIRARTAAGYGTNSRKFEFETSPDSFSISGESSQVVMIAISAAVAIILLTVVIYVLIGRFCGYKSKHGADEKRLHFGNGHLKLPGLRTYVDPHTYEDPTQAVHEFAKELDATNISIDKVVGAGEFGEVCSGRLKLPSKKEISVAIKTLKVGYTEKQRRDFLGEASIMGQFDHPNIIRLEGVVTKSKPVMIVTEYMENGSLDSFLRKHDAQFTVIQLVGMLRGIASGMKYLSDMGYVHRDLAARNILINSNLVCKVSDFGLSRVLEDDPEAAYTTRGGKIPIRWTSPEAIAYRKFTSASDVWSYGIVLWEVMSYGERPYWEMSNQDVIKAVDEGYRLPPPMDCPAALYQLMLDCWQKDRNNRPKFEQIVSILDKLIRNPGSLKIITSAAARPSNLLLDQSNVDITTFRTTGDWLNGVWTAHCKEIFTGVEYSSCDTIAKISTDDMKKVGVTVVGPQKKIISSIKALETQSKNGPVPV
CHK2(h), sequence (O96017 whole entry): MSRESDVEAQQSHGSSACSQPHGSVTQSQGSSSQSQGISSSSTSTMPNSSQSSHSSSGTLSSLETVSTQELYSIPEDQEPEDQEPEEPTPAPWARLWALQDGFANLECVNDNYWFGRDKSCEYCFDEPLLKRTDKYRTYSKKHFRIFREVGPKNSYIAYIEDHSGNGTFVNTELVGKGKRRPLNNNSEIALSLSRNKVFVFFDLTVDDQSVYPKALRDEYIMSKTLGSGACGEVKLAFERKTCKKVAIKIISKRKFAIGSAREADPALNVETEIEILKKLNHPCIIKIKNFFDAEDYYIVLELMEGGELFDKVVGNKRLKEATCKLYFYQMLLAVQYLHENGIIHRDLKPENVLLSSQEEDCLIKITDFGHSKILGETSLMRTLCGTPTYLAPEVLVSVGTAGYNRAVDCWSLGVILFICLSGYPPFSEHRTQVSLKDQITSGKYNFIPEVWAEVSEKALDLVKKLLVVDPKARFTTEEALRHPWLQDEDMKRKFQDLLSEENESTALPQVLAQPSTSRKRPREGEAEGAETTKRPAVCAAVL

As to `CN1CCCC1CCNC(=O)c1cn2c3c(c(N4CCC(c5cnccn5)C4)c(F)cc3c1=O)Oc1cc3ccccc3cc1-2` (centres unmarked) [Compound A-1], the remaining activity at 2.5 µM at EphA3(h) came to 91%; on ZAP-70(h) it was 130%; at PKD2(h), 79%; on CHK2(h), 62%; on Pim-1(h), 30%; at MKK6(h), 100%. Further, the remaining activity at 2.5 µM on IGF-1R(h) turned out to be 103%.

On to `CC(=O)N1CCN(c2ccc3c(=O)c(C(=O)NCCN4CCCC4)c4n(C)c5ccccc5n4c3n2)CC1` [Compound B-1], for which the remaining activity at 2.5 µM on EphA3(h) was found to be 118%; on ZAP-70(h), 105%; at PKD2(h), 98%; at CHK2(h) it was 99%; at Pim-1(h), 104%; at MKK6(h), 90%. For the same compound, the remaining activity at 2.5 µM on IGF-1R(h) was 113%.
